Experimental data: patent publication US20240100190A1, “Brain Disease Therapy Enhancing Inhibition of GABAergic Neurons” (priority 2022, published 2024)

What was measured:
[1] = Spontaneous locomotion detection (active time); conditions: after CNO administration in two groups
Description: The animals are housed separately under a standard 12-h light/dark cycle and stable temperature (23-25° C.) with full access to food and water.
A summation of each pixel value for the difference is used to decide whether the animal moves between these three frames. […] Animal movements are analyzed by the program. The active time for each mouse is determined every 24 h.
The behavioral effects after CNO intervention in the two groups are evaluated.

GABAergic neurons [2] = assay: CNO administration and in vivo recordings in the auditory cortex; design: species or system mice
Description: In vivo recordings are performed in the ACs of mice using the same surgery setup described above.
For each time point, an average of six evoked responses is used. The inventors average the LFP amplitudes every six trials (MATLAB), which represents a 1-min recording. The representative waveforms are also plotted with MATLAB (MathWorks.Inc, Natick, US; https://ww2.mathworks.cn/). […] The results are exported into Excel for offline analysis and plotting.
C57BL/6J male mice (6-7 weeks old) are anesthetized with pentobarbital (100 mg/kg) supplemented with atropine (0.05 mg/kg, Sigma). The anesthetized mice are head-fixed using a stereotaxic device (RWD Life Science; Shen Zhen, China; https://www.rwdstco.com/). […] The PHP.eB serotype virus, which readily crosses the BBB for brain transduction, is produced using standard production methods. A glass pipette tip (at an angle of […] to about 45°) is used to slowly touch the surface of the transverse venous sinus with the injection pump running at a slow speed (100 nL/min). After the glass pipette tip penetrates the vessel, the injection speed is increased to 1,000 nL/min. A total of 50 μL of the virus (1.5E12 VGs/kg of body weight, VG, vector genome) is injected.
To verify the CNO administration can suppress the response to the AS through the potentiation of inhibition, electrophysiological recordings of neuronal firing and LFP response to the AS before and after the CNO application are performed.

GABAergic neurons [3] = assay: Laser pulse induced IPSC recording in cortex; type: cell-based, Vgat-Cre mice; conditions: hM3Dq and DIO-ChrimsonR-mCherry injected cortex; laser 0.1 Hz; baseline 100.22±0.66%
Description: FIG. 4A is a diagram showing the hM3Dq and DIO-ChrimsonR-mCherry injection into the cortex of Vgat-Cre mice.

GABAergic neurons [4] = assay: Current-clamp cortical slice recordings with CNO application; type: cell-based, mice; conditions: after CNO, hM3Dq-expressing neurons in cortical slices, 13 neurons
Description: Briefly, anesthetized mice receive transcardial perfusion withN-methyl-D-glucamine (NMDG)-aCSF (92 mM NMDG, 2.5 mM KCl, 1.2 mM NaH2PO4, 30 mM NaHCO3, 20 mM N-2-Hydroxyethylpiperazine-N-2-Ethane Sulfonic Acid (HEPES), 25 mM glucose, 2 mM thiourea, 5 mM Na-ascorbate, 3 mM Na-pyruvate, 0.5 mM CaCl2·4H2O, and 10 mM MgSO4·7H2O; adjusted pH to 7.3-7.4 with concentrated HCl), and the brain is gently and rapidly extracted from the skull and then cut into 300 μm-thick sections with a vibratome (Leica VT1200S). […]
Brain slices are then bathed in room-temperature recording aCSF (124 mM NaCl, 2.5 mM KCl, 1.2 mM NaH2PO4, 24 mM NaHCO3, 5 mM HEPES, 12.5 mM glucose, 2 mM CaCl2·4H2O and 2 mM MgSO4·7H2O, ˜25° C.) and whole-cell recordings are made at the auditory cortex using Multiclamp 700B amplifier (Molecular Devices, www.moleculardevices.com, Menlo Park, California, USA) and Digital 1440A digitizer (Molecular Devices, www.moleculardevices.com, Menlo Park, California, USA). […] 0.3 mL CNO (0.2 mg/mL) is gently infused into the recording chamber (5-7 mL recording aCSF) and recorded for at least 20 minutes. The firing rate is analyzed with Clampfit 11.2 (Molecular Devices, www.moleculardevices.com, Menlo Park, California, USA). […]

[5] = hM3Dq mice, n=30 recording sites

C[N+]1([O-])CCN(C2=Nc3cc(Cl)ccc3Nc3ccccc32)CC1 [CNO, clozapine-N-oxide]
side effects (astrocytic reactivity and locomotion) [1]: not detected
duration of activation of the new units after the CNO application (GABAergic neurons [2]; hM3Dq mice): 25 min
number of spike-sorted units after the CNO injection (GABAergic neurons [2]; [5]): 4.30±0.27
number of spike-sorted units before CNO injection (GABAergic neurons [2]; [5]): 2.73±0.27
maximum firing frequency during the bursts of the new units after CNO application (GABAergic neurons [2]; n=44 units, mean): 32.63±3.30 Hz
normalized IPSCs amplitude 35-40 min after CNO (GABAergic neurons [3]): 250.62±6.46%
mean highest firing rate in bursts (GABAergic neurons [4]): 33.24±2.46 Hz
